Test results: patent publication US7897765B2, “Therapeutic compounds and uses thereof” (Elixir Pharmaceuticals, Inc., priority 2003, dated 2011)

Assays:
male C57BL/6J mice = assay: fast-refeed (refeeding) assay, food intake; format: in vivo
Procedure: Food is removed at 6 pm for an overnight (˜16 hour) fast. Beginning at 10 am on the next morning, mice are administered with either vehicle (e.g., saline+acetic acid, pH=5) or the compound of interest. Mice are then returned to their home cages and pre-weighed food (approximately 90 grams) is immediately returned to the food hoppers in each cage. The weight of the food remaining in the food hoppers is measured at 30 minutes, 1 hour, 2 hours, and 4 hours post compound/vehicle administration. Final body weights are then recorded for the mice.
Animals: For this particular experiment, male C57BL/6J mice (Vendor: Taconic; Age: 7 weeks; Weight Range: 19-25 g) were used. The animals were housed individually during acclimation to facility (3-5 days) and throughout the study. […]
• Mice were weighed and sorted into groups based on Body Weight. • Food was removed at 6 pm for an overnight (˜16 hour) fast. […] After injections mice were returned to their home cages. • Following each injection, pre-weighed food was immediately returned to the food hoppers. • Note: food was weighed the morning injections were administered. • Mouse weighed • Food weighed (approx. 90 g) • Mouse injected • Pre-weighed food returned to hopper • Food Weights were measured at 30 min, 1 hr, 2 hr, and 4 hrs post injection. • Final body weights were recorded and mice were euthanized via CO2 asphyxiation.

GHS-R = GHS-R (Homo sapiens, UniProt Q92847); assay: cell based assay of GHS-R antagonist/agonist activity; design: key: A refers to a compound having antagonist activity with Ki<100 nM in a cell based assay; B refers to a compound having agonist activity with EC50<100 nM in a cell based assay; C refers to a compound having antagonist activity of Ki>100 nM and <1500 nM in a cell based assay; D refers to a compound having antagonist activity with Ki, <100 nM and agonist activity with EC50<100 nM in a cell-based assay; E refers to other exemplary compounds; conditions: GHS-R antagonist Ki and/or agonist EC50 class
Procedure, shortened: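 COS-7 cells transfected with GHS-R, labelled with [3H]-myo-inositol, preincubated in 10 mM LiCl buffer pH 7.4, then given compound 45 min at 37 °C; [3H]-IP isolated by anion exchange. Alternatively, CREB-luciferase reporter in transfected HEK293 with 5 h compound exposure. IC50/EC50 by nonlinear regression.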

Sequence of GHS-R (Q92847 whole entry, species assumed): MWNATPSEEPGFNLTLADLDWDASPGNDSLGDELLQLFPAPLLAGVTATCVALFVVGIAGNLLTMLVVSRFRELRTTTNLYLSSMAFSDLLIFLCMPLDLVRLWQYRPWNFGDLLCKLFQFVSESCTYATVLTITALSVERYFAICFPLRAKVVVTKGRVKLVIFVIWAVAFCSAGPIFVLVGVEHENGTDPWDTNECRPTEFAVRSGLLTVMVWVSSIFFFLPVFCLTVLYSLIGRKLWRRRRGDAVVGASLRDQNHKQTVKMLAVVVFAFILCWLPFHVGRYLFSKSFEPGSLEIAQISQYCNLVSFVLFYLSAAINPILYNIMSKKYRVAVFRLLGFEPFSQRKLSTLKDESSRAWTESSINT

Molecule	feeding activity of mice in the fast refeed assay (male C57BL/6J mice)	Activity (GHS-R)
substance P	alters feeding activity	–
CC(C)N(C)CCS(=O)(=O)N[C@H](COCc1ccccc1)C(=O)N1CCC2(CC1)CN(S(C)(=O)=O)c1ccccc12 [Compound 21]	–	C (C refers to a compound having antagonist activity of Ki>100 nM and <1500 nM in a cell based assay)
CN(C)CCS(=O)(=O)N[C@H](COCc1ccccc1)C(=O)N1CCC2(CC1)CN(S(C)(=O)=O)c1ccccc12 [Compound 83]	–	E
CN1CCC[C@H](C(=O)N[C@H](COCc2ccccc2)C(=O)N2CCC3(CC2)CN(S(C)(=O)=O)c2ccccc23)C1 [Compound 116]	–	E
CS(=O)(=O)N1CC2(CCN(C(=O)[C@@H](COCc3ccccc3)NS(=O)(=O)CCCN3CCCC3)CC2)c2ccccc21 [Compound 159]	–	A (A refers to a compound having antagonist activity with Ki<100 nM in a cell based assay)
CN(C)C1(C(=O)N[C@H](COCc2ccccc2)C(=O)N2CCC3(CC2)CN(S(C)(=O)=O)c2ccccc23)CCCCC1 [Compound 118]	–	E
CS(=O)(=O)N1CC2(CCN(C(=O)[C@@H](COCc3ccccc3)NC(=O)Cn3ccnc3)CC2)c2ccccc21 [Compound 55]	–	E
CN(C)C[C@H]1CCC[C@@H](CNC(=O)[C@@H](Cc2c[nH]c3ccccc23)NC(=O)N2CCC3(C=Cc4ccccc43)CC2)C1 [Compound 5]	–	A (A refers to a compound having antagonist activity with Ki<100 nM in a cell based assay)
CC(C)(N)C(=O)N[C@H](COCc1ccccc1)C(=O)N1CCC2(CC1)CN(S(C)(=O)=O)c1ccccc12.CS(=O)(=O)O [Compound 125]	–	B (B refers to a compound having agonist activity with EC50<100 nM in a cell based assay)
CN1CCC[C@H]1C(=O)N[C@H](COCc1ccccc1)C(=O)N1CCC2(CC1)CN(S(C)(=O)=O)c1ccccc12 [Compound 24]	–	C (C refers to a compound having antagonist activity of Ki>100 nM and <1500 nM in a cell based assay)
CS(=O)(=O)N1CC2(CCN(C(=O)[C@@H](COCc3ccccc3)NS(=O)(=O)CCN3CCCCC3)CC2)c2ccccc21.Cl [Compound 37]	–	C (C refers to a compound having antagonist activity of Ki>100 nM and <1500 nM in a cell based assay)
CS(=O)(=O)N1CC2(CCN(C(=O)[C@@H](COCc3ccccc3)NS(=O)(=O)CCN3C4CCCC3CC4)CC2)c2ccccc21 [Compound 151]	–	C (C refers to a compound having antagonist activity of Ki>100 nM and <1500 nM in a cell based assay)
CC(C)(C)OC(=O)N1CCC=C(C(=O)N[C@H](COCc2ccccc2)C(=O)N2CCC3(CC2)CN(S(C)(=O)=O)c2ccccc23)C1 [Compound 106]	–	E
CN1CCC(S(=O)(=O)N[C@H](COCc2ccccc2)C(=O)N2CCC3(CC2)CN(S(C)(=O)=O)c2ccccc23)CC1 [Compound 143]	–	A (A refers to a compound having antagonist activity with Ki<100 nM in a cell based assay)
CS(=O)(=O)N1CC2(CCN(C(=O)[C@@H](COCc3ccccc3)NC(=O)C3=NCCN3)CC2)c2ccccc21 [Compound 80]	–	E
CCN(CC)CCCS(=O)(=O)N[C@H](CCc1ccccc1)C(=O)N1CCC2(CC1)CN(S(C)(=O)=O)c1ccccc12 [Compound 163]	–	A (A refers to a compound having antagonist activity with Ki<100 nM in a cell based assay)
CS(=O)(=O)N1CC2(CCN(C(=O)[C@@H](COCc3ccccc3)NC(=O)CN3CCC3)CC2)c2ccccc21 [Compound 39]	–	C (C refers to a compound having antagonist activity of Ki>100 nM and <1500 nM in a cell based assay)
COc1cccc(C(=O)N2CC3(CCN(C(=O)[C@@H](COCc4ccccc4)NC(=O)CN(C)C)CC3)c3ccccc32)c1 [Compound 74]	–	E
CCN(CC)CCCS(=O)(=O)N[C@H](COCc1ccccc1)C(=O)N1CCC2(C=Cc3ccccc32)CC1 [Compound 164]	–	A (A refers to a compound having antagonist activity with Ki<100 nM in a cell based assay)

Molecule	feeding activity of mice in the fast refeed assay (male C57BL/6J mice)	Activity (GHS-R)
CS(=O)(=O)N1CC2(CCN(C(=O)[C@@H](COCc3ccccc3)NC(=S)Nc3cccnc3)CC2)c2ccccc21 [Compound 86]	–	E
CS(=O)(=O)N1CC2(CCN(C(=O)[C@@H](COCc3ccccc3)NC(=O)C3CCCNC3)CC2)c2ccccc21 (stereo partly shown) [Compound 4]	–	D (D refers to a compound having antagonist activity with Ki, <100 nM and agonist activity with EC50<100 nM in a cell-based assay)
CN1CCN(CCS(=O)(=O)N[C@H](COCc2ccccc2)C(=O)N2CCC3(CC2)CN(S(C)(=O)=O)c2ccccc23)CC1 [Compound 46]	–	C (C refers to a compound having antagonist activity of Ki>100 nM and <1500 nM in a cell based assay)
CS(=O)(=O)N1CC2(CCN(C(=O)[C@@H](COCc3ccccc3)NC(=O)C3(N)CCCC3)CC2)c2ccccc21 [Compound 134]	–	B (B refers to a compound having agonist activity with EC50<100 nM in a cell based assay)
C[C@@H](N)C(=O)N[C@H](COCc1ccccc1)C(=O)N1CCC2(CC1)CN(S(C)(=O)=O)c1ccccc12 [Compound 79]	–	E
CS(=O)(=O)N1CC2(CCN(C(=O)[C@@H](COCc3ccccc3)NS(=O)(=O)CCN3CCCC3)CC2)c2ccccc21.Cl [Compound 28]	–	C (C refers to a compound having antagonist activity of Ki>100 nM and <1500 nM in a cell based assay)
CNCC(=O)N[C@H](COCc1ccccc1)C(=O)N1CCC2(CC1)CN(S(C)(=O)=O)c1ccccc12 [Compound 70]	–	E
CS(=O)(=O)N1CC2(CCN(C(=O)[C@@H](COCc3ccccc3)NS(=O)(=O)CCN3CCC3)CC2)c2ccccc21 [Compound 105]	–	E
CC(C)(C)NC(=O)N[C@H](COCc1ccccc1)C(=O)N1CCC2(CC1)CN(S(C)(=O)=O)c1ccccc12 [Compound 17]	–	C (C refers to a compound having antagonist activity of Ki>100 nM and <1500 nM in a cell based assay)
CS(=O)(=O)N1CC2(CCN(C(=O)[C@@H](COCc3ccccc3)NS(=O)(=O)CCCN3CCOCC3)CC2)c2ccccc21 [Compound 149]	–	E
CN1CCC[C@@H]1C(=O)N[C@H](COCc1ccccc1)C(=O)N1CCC2(CC1)CN(S(C)(=O)=O)c1ccccc12 [Compound 32]	–	C (C refers to a compound having antagonist activity of Ki>100 nM and <1500 nM in a cell based assay)
CS(=O)(=O)N1CC2(CCN(C(=O)[C@@H](COCc3ccccc3)NC(=O)NCCN3CCCCC3)CC2)c2ccccc21 [Compound 97]	–	E
C[C@H](C(=O)N[C@H](COCc1ccccc1)C(=O)N1CCC2(CC1)CN(S(C)(=O)=O)c1ccccc12)N(C)C [Compound 14]	–	A (A refers to a compound having antagonist activity with Ki<100 nM in a cell based assay)
CN1CCC(CN(C)[C@H](COCc2ccccc2)C(=O)N2CCC3(CC2)CN(S(C)(=O)=O)c2ccccc23)CC1.Cl.Cl [Compound 22]	–	C (C refers to a compound having antagonist activity of Ki>100 nM and <1500 nM in a cell based assay)
CS(=O)(=O)N1CC2(CCN(C(=O)[C@@H](COCc3ccccc3)N3CCCS3(=O)=O)CC2)c2ccccc21 [Compound 158]	–	E
CS(=O)(=O)N1CC2(CCN(C(=O)[C@@H](COCc3ccccc3)NC(=O)CO)CC2)c2ccccc21 [Compound 54]	–	E
CC(C)N1CC=C(C(=O)N[C@H](COCc2ccccc2)C(=O)N2CCC3(CC2)CN(S(C)(=O)=O)c2ccccc23)CC1.Cl [Compound 49]	–	C (C refers to a compound having antagonist activity of Ki>100 nM and <1500 nM in a cell based assay)
CN(C)CC(=O)N[C@H](COCc1ccccc1)C(=O)N1CCC2(CC1)CN(S(=O)(=O)CC(F)(F)F)c1ccccc12 [Compound 47]	–	C (C refers to a compound having antagonist activity of Ki>100 nM and <1500 nM in a cell based assay)
